Columns and labels:
Assay in all cases: Cell proliferation inhibition experiment, CellTiter-Glo (CTG) method
Type in all cases: cell-based
NCI-H1975 = settings: for IC50: Homo sapiens, NCI-H1975, 72 h, NCI-H1975 cells, CTG, 3 days; for A-431/NCI-H1975 Selectivity: ratio of A-431 IC50 to NCI-H1975 IC50
Description: (§1) Cell Proliferation Inhibition Experiment
(§2) Compounds were tested in the selected cell lines, and solvent is set as control, nine concentrations were detected with three parallel wells for each concentration.
(§3) 2. Reagents and Materials • 1) fetal bovine serum FBS (GIBCO, Cat #10099-141) • 2) CellTiter-Glo® Luminescent Cell Viability Assay (Promega, Cat #G7572) • 3) 96-well plate with flat clear bottom, black wall plates (Corning®, Cat #3340)
(§4) The first day: Incubation and plant of cells • 1) Cells in logarithmic growth phase were harvested and counted by cell counter. Cell viability was detected by trypan blue exclusion assay to ensure that the viability of each cell line was above 90%. • 2) Cell concentration was adjusted by diluting complete culture medium, and 90 μL cell suspension was added to a 96-well plate (T0 plate and drug plate to be tested) to make the cell density reach the specified concentration. • 3) Cells in 96-well plate were incubated overnight at condition of 37° C., 5% CO2 and 95% humidity.
(§5) The second day: Reading T0 plate • 1) 10 μL culture medium was added to T0 plate. • 2) CTG reagent was melt, while the cell plate was balanced to room temperature for 30 minutes. • 3) The same volume of CTG solution was added to each well. • 4) The cell plate was vibrated for 2 minutes on an orbital shaker to lyze the cells. • 5) The cell plate was placed at room temperature for 10 minutes to stabilize the cold light signal. • 6) The cold light value was read with EnVision.
(§6) Drug Addition • 1) Drug dilution. The compounds to be tested were dissolved and packaged, then a gradient elution was performed to obtain a solution diluted 10 times. • 2) Drug addition. […] drug solution was added into each well of the 96-well plate, which was inoculated cells, three parallel wells were set for each cell concentration.
(§7) The third day: reading plate at the terminal • 1) CTG reagent was melt, while the cell plate was balanced to room temperature for 30 minutes. • 2) The same volume of CTG solution was added to each well. • 3) The cell plate was vibrated for 2 minutes on an orbital shaker to lyze the cells. • 4) The cell plate was placed at room temperature for 10 minutes to stabilize the cold light signal. • 5) The cold light value was read with EnVision
(§8) Data were analyzed using GraphPad Prism 5.0 software, and non-linear S curve regression was used for fitting the data to give a dose-effect curve, IC50 value was calculated accordingly. Cell Survival Rate (%)=(Lumdrugs−Lumcontrol)/(Lumcell−Lumcontrol)×100%.

PC-9 = settings: Homo sapiens, PC-9, 72 h, PC-9 cells, 3 days
Description: as §1, §2, §3, §4, §5, §6, §7, §8

A-431 = settings: Homo sapiens, A-431, 72 h, A-431 cells, 3 days
Description: as §1, §2, §3, §4, §5
Drug Addition • 1) Drug dilution. The compounds to be tested were dissolved and packaged, then a gradient elution was performed to obtain a solution diluted 10 times. • 2) Drug addition. […] drug solution was added into each well of the 96-well plate, which was inoculated cells, three parallel wells were set for each cell concentration. The highest concentration of the compounds to be tested on A-431 was 30 μM, nine concentrations was set with 3 times dilution; while the highest concentration on NCI-H1975 and PC-9 was 1.111 μM, 9 concentrations was set with 3 times dilution. • 3) Culture. Cells in 96-well plates in which drugs have been added were cultured at condition of 37° C., 5% CO2 and 95% humidity for 3 days, and then CTG assay was performed respectively.
as §7, §8

IC50 (NCI-H1975) [µM] | IC50 (PC-9) [µM] | IC50 (A-431) [µM] | SMILES | A-431/NCI-H1975 Selectivity (NCI-H1975)
0.0047 | 0.0056 | 0.89 | C=CC(=O)Nc1cc(Nc2cc(-c3ccc4c(cnn4C)c3)ncn2)c(OC)cc1N(C)CCN(C)C [compound 1] | 
0.0066 | 0.0044 | 0.362 | C=CC(=O)Nc1cc(Nc2cc(-c3ccc4cnn(C)c4c3)ncn2)c(OC)cc1N(C)CCN(C)C [compound 2] | 
0.0151 | 0.0101 | 0.514 | C=CC(=O)Nc1cc(Nc2cc(-c3cc(C(F)(F)F)c4c(cnn4C)c3)ncn2)c(OC)cc1N(C)CCN(C)C [compound 4] | 34.0
0.0056 | 0.0039 | 0.302 | C=CC(=O)Nc1cc(Nc2cc(-c3cc4cnn(C)c4cc3F)ncn2)c(OC)cc1N(C)CCN(C)C [compound 5] | 
0.0321 | 0.0194 | 1.72 | C=CC(=O)Nc1cc(Nc2cc(-c3cc(F)c4c(cnn4C)c3)ncn2)c(OC)cc1N(C)CCN(C)C [compound 6] | 53.7
0.0111 | 0.0107 | 0.129 | C=CC(=O)Nc1cc(Nc2cc(-c3ccc4nn(C)cc4c3)ncn2)c(OC)cc1N(C)CCN(C)C [compound 7] | 11.6
0.0526 | 0.0362 | 0.767 | C=CC(=O)Nc1cc(Nc2cc(-c3ccc4ncsc4c3)ncn2)c(OC)cc1N1CCN(C)CC1 [compound 9] | 14.6
0.0473 | 0.0277 | 1.99 | C=CC(=O)Nc1cc(Nc2cc(-c3ccc4c(cnn4C)c3)ncn2)c(OC)cc1N1CC(N(C)C)C1 [compound 10] | 42.0
0.0674 | 0.0218 | 2.14 | C=CC(=O)Nc1cc(Nc2cc(-c3ccc4c(cnn4C)c3)ncn2)c(OC)cc1C1CCN(C)CC1 [compound 11] | 31.7
0.0531 | 0.0569 | 4.13 | C=CC(=O)Nc1cc(Nc2cc(-c3ccc4c(cnn4C)c3)ncn2)c(OC)cc1C(=O)N1CCN(C)CC1 [compound 12] | 77.7
0.0018 | 0.0086 | 0.77 | C=CC(=O)Nc1c(N(C)CCN(C)C)cc(OC)c(Nc2cc(-c3ccc4c(cnn4C)c3)ncn2)c1F [compound 13] | 
0.0061 | 0.0059 | 1.15 | C=CC(=O)Nc1cc(Nc2cc(-c3ccc4c(cnn4CC)c3)ncn2)c(OC)cc1N(C)CCN(C)C [compound 14] | 188.0
0.0216 | 0.0127 | 1.29 | C=CC(=O)Nc1cc(Nc2cc(-c3ccc4c(cnn4C(C)C)c3)ncn2)c(OC)cc1N(C)CCN(C)C [compound 15] | 59.7
0.057 | 0.0405 | 1.55 | C=CC(=O)Nc1cc(Nc2nccc(-c3ccc4cnn(C)c4c3)n2)c(OC)cc1N(C)CCN(C)C [compound 16] | 27.1
0.0222 | 0.0169 | 1.25 | C=CC(=O)Nc1cc(Nc2nccc(-c3ccc4cnn(C(C)C)c4c3)n2)c(OC)cc1N(C)CCN(C)C [compound 17] | 56.2
0.0111 | 0.0089 | 0.983 | C=CC(=O)Nc1cc(Nc2cc(-c3ccc4c(cnn4C)c3)ncn2)c(OC)cc1N1CCN(CC)CC1 [compound 18] | 88.8
0.0181 | 0.0107 | 0.85 | C=CC(=O)Nc1cc(Nc2cc(-c3ccc4c(cnn4C)c3)ncn2)c(OC)cc1N1CCN(C(C)C)CC1 [compound 19] | 47.0

IC50 (NCI-H1975) [µM] | IC50 (PC-9) [µM] | IC50 (A-431) [µM] | SMILES | A-431/NCI-H1975 Selectivity (NCI-H1975)
0.0461 | 0.0249 | 1.57 | C=CC(=O)Nc1cc(Nc2cc(-c3ccc4c(cnn4C)c3)ncn2)c(OC)cc1N1CCN(C(C)=O)CC1 [compound 20] | 33.9
0.0464 | 0.0296 | 2.77 | C=CC(=O)Nc1cc(Nc2cc(-c3ccc4c(cnn4C)c3)ncn2)c(OC)cc1N1CCN(C)C[C@H]1C [compound 21] | 59.7
0.0181 | 0.0134 | 1.06 | C=CC(=O)Nc1cc(Nc2cc(-c3ccc4c(cnn4C)c3)ncn2)c(OC)cc1N1CCN(C)C(C)C1 (stereo not drawn) [compound 22] | 58.3
0.0547 | 0.0678 | 0.736 | C=CC(=O)Nc1cc(Nc2cc(-c3ccc4c(cnn4C)c3)ncn2)c(OC)cc1N1C[C@@H]2C[C@H]1CN2C [compound 25] | 13.5
0.0323 | 0.0196 | 1.43 | C=CC(=O)Nc1cc(Nc2cc(-c3ccc4c(cnn4C)c3)ncn2)c(OC)cc1N1CCN(CC)[C@@H](C)C1 [compound 28] | 44.2
0.0557 | 0.0799 | 1.81 | C=CC(=O)Nc1cc(Nc2cc(-c3ccc4c(cnn4C)c3)ncn2)c(OC)cc1N1CCN(CC)[C@H](C)C1 [compound 29] | 32.6
0.0324 | 0.0247 | 1.35 | C=CC(=O)Nc1cc(Nc2cc(-c3ccc4c(cnn4C)c3)ncn2)c(OC)cc1N1CCN(C)[C@@H](C)C1 [compound 30] | 41.8
0.0527 | 0.0456 | 1.58 | C=CC(=O)Nc1cc(Nc2cc(-c3ccc4c(cnn4C)c3)ncn2)c(OC)cc1N1CCN(C)[C@H](C)C1 [compound 31] | 29.9
0.186 | 0.0109 | 9.33 | C=CC(=O)Nc1cc(Nc2cc(-c3ccc4c(cnn4C)c3)ncn2)c(OC)cc1N1CCN(CC(F)(F)F)CC1 [compound 32] | 50.1
0.0314 | 0.022 | 1.01 | C=CC(=O)Nc1cc(Nc2cc(-c3ccc4c(cnn4C)c3)ncn2)c(OC)cc1N(C)CCN1CCCC1 [compound 36] | 32.3
0.0675 | 0.0798 | 1.72 | C=CC(=O)Nc1cc(Nc2cc(-c3ccc4c(cnn4C)c3)ncn2)c(OC)cc1N(C)CCN1CCCCC1 [compound 37] | 25.5
0.0759 | 0.0897 | 3.31 | C=CC(=O)Nc1cc(Nc2cc(-c3ccc4c(cnn4C)c3)ncn2)c(OC)cc1N(C)CCN1CCOCC1 [compound 38] | 43.7
0.0245 | 0.0257 | 0.973 | C=CC(=O)Nc1cc(Nc2cc(-c3ccc4c(cnn4C)c3)ncn2)c(OC)cc1N1CCCN(C)CC1 [compound 39] | 39.6
0.057 | 0.0461 | 1.97 | C=CC(=O)Nc1cc(Nc2cc(-c3ccc4c(cnn4C)c3)ncn2)c(OC)cc1N(C)CCCN(C)C [compound 40] | 34.5
0.0204 | 0.0106 | 0.612 | C=CC(=O)Nc1cc(Nc2cc(-c3ccc4cnn(C)c4c3)ncn2)c(OC)cc1N1CCN(C)C(C)C1 (stereo not drawn) [compound 41] | 30.0
0.0133 |  | 1.42 | C=CC(=O)Nc1cc(Nc2cc(-c3ccc4c(cnn4C)c3)ncn2)c(OC)cc1N(C)C1CCN(C)C1 (stereo not drawn) [compound 57] | 
0.0969 |  | 2.02 | C=CC(=O)Nc1cc(Nc2cc(-c3ccc4c(cnn4C)c3)ncn2)c(OC)cc1N(C)C1CCOCC1 [compound 106] | 20.8

SMILES | IC50 (NCI-H1975) [µM] | IC50 (PC-9) [µM] | IC50 (A-431) [µM] | A-431/NCI-H1975 Selectivity (NCI-H1975)
C=CC(=O)Nc1cc(Nc2cc(-c3ccc4c(cnn4C)c3)ncn2)c(OC)cc1N(C)C1CCN(C)CC1 [compound 35] | 0.0132 | 0.0164 | 1.59 | 
